Results on seven compounds are retold here after patent US20250122190A1, “HALOGEN-SUBSTITUTED PYRIDAZINONE COMPOUND AND APPLICATION THEREOF” (MEDSHINE DISCOVERY INC., priority 2021, published 2025).

This data set is described as follows: In vivo PK studies, intravenous injection. To be noted: rat, plasma, male SD rats; for Vd: read-out: Vdss. The procedure:
Male SD rats were used as test animals. After intravenous injection, the blood drug concentration of the compounds was determined and the pharmacokinetic behavior was evaluated.
Three healthy adult male SD rats were selected. The test compounds were mixed with an appropriate amount of a vehicle of the intravenous injection group and prepared into a 0.5 or 1 mg/mL clear solution, which was filtered with a […] microporous filter membrane for later use. After intravenous administration to the rats at 0.5 or 1 mg/kg, whole blood was collected at 0.083, 0.25, 0.5, 1, 2, 4, 8, 24 hours after administration and placed in EDTA-K2 anticoagulant tubes, and the mixture was vortexed thoroughly and centrifuged at 3200 g, 4° C. for 10 minutes to obtain the plasma. The LC-MS/MS method was used to determine the drug concentration, and the Phoenix WinNonlin 6.3 pharmacokinetic software was used to calculate the relevant pharmacokinetic parameters by the non-compartmental model linear logarithmic trapezoidal method. • Vehicle 1:10% DMSO/10% Kolliphor® HS 15/80% (20% sulfobutyl-β-cyclodextrin); • Vehicle 2:10% DMSO+20% polyoxyethylenated castor oil+70% water; • Vehicle 3:5% DMSO+10% Kolliphor® HS 15+85% physiological saline; • Vehicle 4:10% DMSO+60% polyethylene glycol 400+30% (10% aqueous hydroxypropyl-β-cyclodextrin solution).

Like-named read-outs stand apart in the source and are kept apart here.

With `O=c1[nH]ncc(N2CCc3c(ncnc3Sc3ccc(F)cc3C(F)(F)F)C2)c1Cl` [Compound WX002], where the note is “1 mg/kg, 1 mpk”, the exposure AUC(0-t) (as a rule, the area under the concentration-time curve up to a stated or last time point) stood at 1.97 µM·h; the clearance (in general, the volume of plasma or blood freed of the substance per unit of time) is 18.2 mL/min/kg; the half-life – broadly, the time in which the quantity being followed falls by half – was 110 min; the Vd is 2.28 L/kg.
For `O=c1[nH]ncc(N2CCc3c(ncnc3Oc3ccc(F)cc3Br)C2)c1Cl` [Compound WX004], in that order: 8.26 µM·h, 4.6 mL/min/kg, 121 min and 0.77 L/kg.
With `O=c1[nH]ncc(N2CCc3c(ncnc3Oc3ccc(F)cc3C(F)(F)F)C2)c1Br` [Compound WX009], under “0.5 mg/kg, 0.5 mpk”, the AUC(0-t) was 2.38 µM·h, the clearance was found to be 6.52 mL/min/kg, the half-life was 155 min and the Vd worked out at 1.37 L/kg.
Consider `CC(F)(F)c1cc(F)ccc1Oc1ncnc2c1CCN(c1cn[nH]c(=O)c1Cl)C2` [Compound WX010], for which, where the note is “1 mg/kg, 1 mpk”, the exposure AUC(0-t) was 4.75 µM·h, the clearance was determined as 7.81 mL/min/kg, the half-life is 104 min and the Vd was determined as 1.13 L/kg.
Regarding `COCc1nc2c(c(Oc3ccc(F)cc3C(F)(F)F)n1)CCN(c1cn[nH]c(=O)c1Cl)C2` [Compound WX011], for the setting “1 mg/kg, 1 mpk”, the AUC(0-t) stood at 4.05 µM·h, the clearance was 8.29 mL/min/kg, the half-life is 87.6 min and the Vd is 1.06 L/kg.
The like results for `O=c1[nH]ncc(N2CCc3c(nc(CO)nc3Sc3ccc(F)cc3C(F)(F)F)C2)c1Cl` [Compound WX012] were, in that order, 3.33 µM·h, 10.1 mL/min/kg, 139 min and 1.62 L/kg.
For `Nc1nc2c(c(Sc3ccc(F)cc3C(F)(F)F)n1)CCN(c1cn[nH]c(=O)c1Cl)C2` [Compound WX013], in that order: 9.13 µM·h, 3.94 mL/min/kg, 159 min and 0.88 L/kg.
